Legend:
[1] = system: antibodies to HCY Oxime-BTG (example 4a); assay type: binding, mice
[2] = system: monoclonal antibody to HCY Oxime-KLH (example 4b); assay type: binding, mice

| Structure (SMILES) | % Cross-Reactivity [1] [%] | IC 50 [1] | % Cross-Reactivity [2] [%] | IC 50 [2] |
| --- | --- | --- | --- | --- |
| O=P1(N(CCCl)CCCl)NCCCO1 (stereo not drawn) [cyclophosphamide] | <0.3 | >10,000 ng/ml | <0.1 | >100,000 ng/ml |
| N[C@@H](Cc1ccc(N(CCCl)CCCl)cc1)C(=O)O [Melphalan, melphalan] | <0.3 | >10,000 ng/ml | <0.1 | >100,000 ng/ml |
| O=C(O)CCCc1ccc(N(CCCl)CCCl)cc1 [Chlorambucil, chlorambucil] | <0.3 | >10,000 ng/ml | <0.1 | >100,000 ng/ml |

Reference: patent US7276347B2 (priority 2004, dated 2007)
